# Experimental data from the supplement of paper PMC11061612.
# Assays:
# Experiment in all cases: Bliss excess, mean over the matrix (fraction); higher = more synergy
# [1] = test system: CHSA8926 (Chondrosarcoma)
# Summary of the method: (§1)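 Bliss excess equals the observed combination effect minus the expected value EA + EB − EA·EB, where EA and EB are the effects of each agent alone. Combination Emax is the second-highest inhibition within the matrix. Inhibition was scaled from CellTiter-Glo 2.0 luminescence, with 0 set by vehicle wells and 1 by blank wells, after 72 hours of two-drug dosing of cells plated in 1536-well plates.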
# [2] = test system: CW-2 (Colorectal Carcinoma)
# Summary of the method: as §1
# [3] = test system: DAN-G (Pancreatic Carcinoma)
# Summary of the method: as §1
# [4] = test system: DMS-114 (Small Cell Lung Carcinoma)
# Summary of the method: as §1
# [5] = test system: H9 (T-Cell Non-Hodgkin's Lymphoma)
# Summary of the method: as §1
# [6] = test system: HCC1187 (Breast Carcinoma)
# Summary of the method: as §1
# [7] = test system: KU812 (Chronic Myelogenous Leukemia)
# Summary of the method: as §1
# [8] = test system: KYSE-270 (Esophageal Squamous Cell Carcinoma)
# Summary of the method: as §1
# [9] = test system: MN-60 (B-Lymphoblastic Leukemia)
# Summary of the method: as §1
# [10] = test system: MOG-G-CCM (Low Grade Glioma)
# Summary of the method: as §1
# [11] = test system: NCCIT (Other Solid Carcinomas)
# Summary of the method: as §1
# [12] = test system: NCI-H3122 (Lung Adenocarcinoma)
# Summary of the method: as §1
# [13] = test system: NCI-H526 (Small Cell Lung Carcinoma)
# Summary of the method: as §1
# [14] = test system: PC-3 (Prostate Carcinoma)
# Summary of the method: as §1
# [15] = test system: RD (Rhabdomyosarcoma)
# Summary of the method: as §1
# [16] = test system: SK-GT-4 (Esophageal Adenocarcinoma)
# Summary of the method: as §1
# [17] = test system: ST486 (Burkitt's Lymphoma)
# Summary of the method: as §1
# [18] = test system: SUP-B15 (B-Lymphoblastic Leukemia)
# Summary of the method: as §1
# [19] = test system: VMRC-RCZ (Kidney Carcinoma)
# Summary of the method: as §1
SMILES,Bliss excess [1],Bliss excess [2],Bliss excess [3],Bliss excess [4],Bliss excess [5],Bliss excess [6],Bliss excess [7],Bliss excess [8],Bliss excess [9],Bliss excess [10],Bliss excess [11],Bliss excess [12],Bliss excess [13],Bliss excess [14],Bliss excess [15],Bliss excess [16],Bliss excess [17],Bliss excess [18],Bliss excess [19]
"NC1(C(=O)N[C@@H](CCO)c2ccc(Cl)cc2)CCN(c2ncnc3[nH]ccc23)CC1 [Capivasertib] + CC(=O)c1c(C)c2cnc(Nc3ccc(N4CCNCC4)cn3)nc2n(C2CCCC2)c1=O [Palbociclib] (first compound max 10 µM, 7x7, partner max 10 µM)",-0.0171,0.0329,-0.0581,-0.0203,-0.0671,0.0279,0.0662,-0.0135,-0.0365,-0.0389,0.0183,0.0266,-0.0331,0.0068,-0.0333,0.0029,-0.0616,-0.007,0.0321
"NC1(C(=O)N[C@@H](CCO)c2ccc(Cl)cc2)CCN(c2ncnc3[nH]ccc23)CC1 [Capivasertib] + CC(C)n1c(=O)n(C)c2cnc3cc(F)c(-c4ccc(OCCCN5CCCCC5)nc4)cc3c21 [AZD1390] (first compound max 10 µM, 7x7, partner max 0.3 µM)",-0.111,-0.0469,-0.111,-0.0465,-0.0341,-0.0424,-0.0037,-0.0296,-0.0685,-0.0302,-0.0628,-0.0304,0.0062,-0.0345,-0.0146,-0.0586,-0.0363,-0.0059,-0.035
"NC1(C(=O)N[C@@H](CCO)c2ccc(Cl)cc2)CCN(c2ncnc3[nH]ccc23)CC1 [Capivasertib] + CCN(CCO)CCCOc1ccc2c(Nc3cc(CC(=O)Nc4cccc(F)c4)[nH]n3)ncnc2c1 [AZD2811] (first compound max 10 µM, 7x7, partner max 1 µM)",-0.0687,-0.0348,0.004,0.0039,-0.0361,-0.0597,0.0173,-0.0289,-0.0095,-0.0373,0.0475,-0.0428,-0.0052,0.0151,-0.0211,-0.016,-0.0396,-0.103,-0.046
"NC1(C(=O)N[C@@H](CCO)c2ccc(Cl)cc2)CCN(c2ncnc3[nH]ccc23)CC1 [Capivasertib] + COc1nnc2ccc(N3CCC(c4ccc(OCCN5CCN(C)C(=O)[C@H]5C)cc4)CC3)nn12 [AZD5153] (first compound max 10 µM, 7x7, partner max 1 µM)",0.0617,0.0459,0.0578,0.0259,-0.0047,0.0491,-0.05,0.124,-0.042,0.0151,0.0382,-0.0131,-0.0213,-0.0242,0.0116,-0.0204,-0.0552,0.0274,0.0171
"NC1(C(=O)N[C@@H](CCO)c2ccc(Cl)cc2)CCN(c2ncnc3[nH]ccc23)CC1 [Capivasertib] + C[C@@H]1COCCN1C2=NC(=NC(=C2)C3(CC3)[S@](=N)(=O)C)C4=C5C=CNC5=NC=C4 [AZD6738] (first compound max 10 µM, 7x7, partner max 10 µM)",-0.0179,-0.0298,-0.0679,-0.0067,0.0057,-0.0292,0.0357,-0.0847,-0.0337,-0.0929,-0.0139,-0.0758,-0.0193,-0.0389,-0.0453,-0.0871,-0.0785,0.0044,-0.0106
"NC1(C(=O)N[C@@H](CCO)c2ccc(Cl)cc2)CCN(c2ncnc3[nH]ccc23)CC1 [Capivasertib] + Cn1cnc2c(F)c(Nc3ccc(Br)cc3Cl)c(C(=O)NOCCO)cc21 [Selumetinib] (first compound max 10 µM, 7x7, partner max 10 µM)",0.034,-0.0035,-0.002,0.0203,0.0271,0.0534,-0.0282,0.0691,-0.0652,-0.0355,0.059,0.092,0.0296,-0.0419,0.0942,-0.0373,0.0217,0.0854,-0.0066
"Cc1nc(Nc2ncc(C(=O)Nc3c(C)cccc3Cl)s2)cc(N2CCN(CCO)CC2)n1 [Dasatinib] + CC(=O)Nc1cccc(-n2c(=O)n(C3CC3)c(=O)c3c(Nc4ccc(I)cc4F)n(C)c(=O)c(C)c32)c1 [Trametinib] (first compound max 2 µM, 7x7, partner max 1 µM)",-0.194,0.0129,0.138,-0.0036,-0.193,-0.0367,-0.0046,-0.0142,-0.029,-0.0782,-0.0842,-0.0651,-0.0323,-0.0759,0.188,-0.0415,-0.0987,-0.0562,-0.0257
"CS(=O)(=O)CCNCc1ccc(-c2ccc3ncnc(Nc4ccc(OCc5cccc(F)c5)c(Cl)c4)c3c2)o1 [Lapatinib] + C[C@@H](Oc1cc(-c2cnn(C3CCNCC3)c2)cnc1N)c1c(Cl)ccc(F)c1Cl [Crizotinib] (first compound max 10 µM, 7x7, partner max 10 µM)",-0.0231,-0.0146,0.0148,-0.017,-0.0249,-0.0156,-0.0598,-0.0054,-0.0288,-0.102,0.0045,0.0001,0.0069,-0.0174,-0.0253,-0.0211,-0.0366,0.024,-0.0291
"CS(=O)(=O)CCNCc1ccc(-c2ccc3ncnc(Nc4ccc(OCc5cccc(F)c5)c(Cl)c4)c3c2)o1 [Lapatinib] + Cn1cnc2c(F)c(Nc3ccc(Br)cc3Cl)c(C(=O)NOCCO)cc21 [Selumetinib] (first compound max 10 µM, 7x7, partner max 10 µM)",,0.003,,-0.044,,,0.0082,-0.0187,-0.0751,-0.0433,-0.0596,0.0083,0.0154,,,0.0369,0.0111,,-0.0149
"CS(=O)(=O)CCNCc1ccc(-c2ccc3ncnc(Nc4ccc(OCc5cccc(F)c5)c(Cl)c4)c3c2)o1 [Lapatinib] + NC1(c2ccc(-c3nc4ccn5c(=O)[nH]nc5c4cc3-c3ccccc3)cc2)CCC1 [MK-2206] (first compound max 10 µM, 7x7, partner max 10 µM)",,-0.0434,,0.0721,-0.247,,-0.0194,0.0262,0.0332,-0.0681,-0.0143,-0.0497,0.0254,,,0.0402,0.0266,,0.0019
"CC(=O)c1c(C)c2cnc(Nc3ccc(N4CCNCC4)cn3)nc2n(C2CCCC2)c1=O [Palbociclib] + CC1(C)CCC(CN2CCN(c3ccc(C(=O)NS(=O)(=O)c4ccc(NCC5CCOCC5)c([N+](=O)[O-])c4)c(Oc4cnc5[nH]ccc5c4)c3)CC2)=C(c2ccc(Cl)cc2)C1 [Venetoclax] (first compound max 10 µM, 7x7, partner max 1 µM)",-0.0232,0.0067,-0.0324,-0.0282,-0.0394,-0.0079,-0.0401,-0.0349,-0.0666,-0.0493,-0.0412,-0.0335,-0.0033,-0.0582,-0.0486,-0.0437,-0.0755,-0.0176,-0.0479
"CC(=O)c1c(C)c2cnc(Nc3ccc(N4CCNCC4)cn3)nc2n(C2CCCC2)c1=O [Palbociclib] + Cc1c2c(nn1C)CSCc1cc(n(C)n1)CSc1cc(c3ccccc3c1)OCCCc1c(C(=O)O)n(C)c3c-2c(Cl)ccc13 [AZD5991] (first compound max 10 µM, 7x7, partner max 1 µM)",-0.0807,-0.0111,-0.0356,-0.0083,-0.0795,0.0023,-0.0351,-0.0804,-0.0363,-0.0595,-0.0538,-0.0217,0.0026,-0.0501,0.0077,-0.0645,-0.0457,-0.207,-0.026
"CCc1c2c(nc3ccc(O)cc13)-c1cc3c(c(=O)n1C2)COC(=O)[C@]3(O)CC [SN-38] + O=C(c1cc(Cc2n[nH]c(=O)c3ccccc23)ccc1F)N1CCN(C(=O)C2CC2)CC1 [Olaparib] (first compound max 0.3 µM, 7x7, partner max 10 µM)",0.0247,0.0293,,0.0741,0.111,0.0419,0.0053,0.0159,0.0066,0.099,0.0062,0.0685,0.0278,,,0.0257,0.0826,,0.0072
